The target of the assay is T1, TSH receptor on human thyroid membranes (Homo sapiens, UniProt P16473).
T1 construct: Thyroid tissue obtained at surgery from patients with Graves' disease was prepared as described by Takahashi et al; from tissue; host or cells: human thyroid tissue from Graves' disease patients, 2000xg membrane fraction
Put plainly: TSH radioreceptor assay: inhibition of 125I-bTSH binding to human thyroid membrane preparations. Particulars: for IC50: read-out: bTSH ED50 (effective dose necessary to inhibit binding of 125I-bTSH by 50%). How it is done: Thyroid tissue obtained at surgery from patients with Graves' disease was prepared as described by Takahashi et al., J. Clin. Endocrinol. Metab. 47:870 (1978), the disclosure of which is incorporated herein. Briefly, the tissue was dissected free of fibrous material, minced with scissors, and homogenized with Polytron homogenizer. The 2000×g fraction was collected by centrifugation, washed and resuspended in 40 mM Tris, 0.1% Bovine Serum Albumin (BSA) pH 7.4 at a concentration of 100 mg equivalents of wet tissue per milliliter. The preparation was stored at -70° C. until used for assay.
Highly purified bovine TSH (30 IU/mg, supplied by Dr. J. G. Pierce, UCLA) was radio-iodinated (Na^125 I, Amersham, Chicago) by a gentle lactoperoxidase procedure described by Takahashi et al., supra, then purified by Sephadex G-100 chromatography.
The membrane assay incubation mixture consisted of […] of the 2000×g membrane fraction, 0.125 ng ^125 I bTSH (approximately 20,000 cpm, 5×10^-12 M), 100 ul of 1% Triton X-100 and noted amounts of test materials in a final volume of 0.5 ml of 40 mM Tris-HCl pH 7.4 plus 0.1% BSA. Nonspecific binding was determined by addition of excess unlabeled bTSH (200 mU/ml, Sigma, St. Louis). After 2 hrs incubation at 25° C., 200 ul of 5 mg/ml bovine gamma globulin and 1 ml 30% polyethylene glycol 6000 (Baker, Phillipsburg, N.J.) in 1M NaCl was added to each tube and the tubes centrifuged at 4000 rpm for 25 minutes. The supernatants were aspirated and pellets counted in a gamma counter. Specific binding averaged 25% of total counts.
FIG. 1 reports 5×10^-12 M labeled bTSH incubated with 10 mg equivalents (wet weight) of 2000×g fraction of thyroid membranes with varying concentrations of unlabeled TSH or synthetic α-subunit peptides. Nonspecific binding was determined in the presence of excess unlabeled TSH.

[1] abbreviates: human thyroid membrane homogenates, ± S.E.

The structures appear in SMILES notation. Residues, ends and D or L forms follow the SMILES beside them.

T1 sequence (P16473 21-764): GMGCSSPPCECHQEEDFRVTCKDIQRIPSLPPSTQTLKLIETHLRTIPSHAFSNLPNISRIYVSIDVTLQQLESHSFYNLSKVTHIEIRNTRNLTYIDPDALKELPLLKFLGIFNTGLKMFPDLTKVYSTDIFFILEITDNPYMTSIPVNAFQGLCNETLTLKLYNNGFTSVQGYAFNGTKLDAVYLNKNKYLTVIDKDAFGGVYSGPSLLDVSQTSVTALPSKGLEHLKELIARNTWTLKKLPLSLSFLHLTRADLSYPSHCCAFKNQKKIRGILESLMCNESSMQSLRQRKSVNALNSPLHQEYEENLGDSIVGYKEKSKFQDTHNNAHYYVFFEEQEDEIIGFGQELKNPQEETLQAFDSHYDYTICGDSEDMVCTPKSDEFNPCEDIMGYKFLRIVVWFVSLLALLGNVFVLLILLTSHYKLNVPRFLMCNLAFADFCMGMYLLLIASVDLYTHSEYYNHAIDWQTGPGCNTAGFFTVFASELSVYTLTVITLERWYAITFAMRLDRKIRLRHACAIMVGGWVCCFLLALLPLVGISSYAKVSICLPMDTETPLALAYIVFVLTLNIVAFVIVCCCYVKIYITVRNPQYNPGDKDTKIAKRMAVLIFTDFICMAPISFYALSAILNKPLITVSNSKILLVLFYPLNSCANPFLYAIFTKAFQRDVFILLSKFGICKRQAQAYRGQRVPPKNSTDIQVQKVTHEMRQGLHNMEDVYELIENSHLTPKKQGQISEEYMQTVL

`CC(C)C[C@H](NC(=O)[C@@H](NC(=O)[C@H](CS)NC(=O)[C@H](CCC(=O)O)NC(=O)[C@@H]1CCCN1C(=O)[C@H](CS)NC(=O)[C@H](CC(=O)O)NC(=O)[C@H](CCC(N)=O)NC(=O)[C@@H](NC(=O)[C@H](CC(=O)O)NC(=O)[C@@H]1CCCN1C(=O)[C@H](C)N)C(C)C)[C@@H](C)O)C(=O)N[C@@H](CCC(N)=O)C(=O)N[C@@H](CCC(=O)O)C(=O)N[C@@H](CC(N)=O)C(N)=O` [α1-15, Ala--Pro--Asp--Val--Gln--Asp--Cys--Pro--Glu--Cys--Thr--Leu--Gln--Glu--Asn] (H-APDVQDCPECTLQEN-NH2): under setting [1], the IC50 was over 700 µM.

Turning to `CC(C)C[C@H](NC(=O)[C@@H]1CCCN1C(=O)[C@@H](NC(=O)[C@@H]1CCCN1C(=O)[C@H](Cc1ccc(O)cc1)NC(=O)[C@H](C)NC(=O)[C@H](CCCNC(=N)N)NC(=O)[C@H](CO)NC(=O)[C@H](Cc1ccccc1)NC(=O)[C@H](CS)NC(=O)[C@@H](N)CS)[C@@H](C)O)C(=O)N[C@@H](CCCNC(=N)N)C(=O)N[C@@H](CO)C(=O)N[C@@H](CCCCN)C(=O)N[C@@H](CCCCN)C(N)=O` [α31-45, Cys--Cys--Phe--Ser--Arg--Ala--Tyr--Pro--Thr--Pro--Leu--Arg--Ser--Lys--Lys] (H-CCFSRAYPTPLRSKK-NH2), under “at concentrations greater than 1×10^-5 m, FIG. 1”, the “displacement of 125I-bTSH label” value is on record as “more than 80%”. Moreover, under setting [1], the IC50 came to 31.2 ± 3.8 µM.

As for `CC(C)[C@H](NC(=O)[C@H](CS)NC(=O)[C@H](CS)NC(=O)[C@@H](NC(=O)[C@H](CO)NC(=O)[C@H](CCC(=O)O)NC(=O)[C@H](CO)NC(=O)[C@@H](NC(=O)[C@@H](NC(=O)[C@H](CC(N)=O)NC(=O)[C@@H](N)CCCCN)C(C)C)[C@@H](C)O)[C@@H](C)O)C(=O)N[C@@H](C)C(=O)N[C@@H](CCCCN)C(=O)N[C@@H](CO)C(=O)N[C@@H](Cc1ccc(O)cc1)C(N)=O` [α51-65, Lys--Asn--Val--Thr--Ser--Glu--Ser--Thr--Cys--Cys--Val--Ala--Lys--Ser--Tyr] (H-KNVTSESTCCVAKSY-NH2), the IC50 under setting [1] worked out at 237 ± 9.5 µM.

As to `CSCC[C@H](NC(=O)[C@@H](NC(=O)[C@H](CCCCN)NC(=O)[C@H](CCCCN)NC(=O)[C@H](CO)NC(=O)[C@H](CCCNC(=N)N)NC(=O)[C@@H](N)CC(C)C)[C@@H](C)O)C(=O)N[C@@H](CC(C)C)C(=O)N[C@H](C(=O)N[C@@H](CCC(N)=O)C(=O)N[C@@H](CCCCN)C(=O)N[C@@H](CC(N)=O)C(=O)N[C@H](C(=O)N[C@H](C(=O)N[C@@H](CO)C(N)=O)[C@@H](C)O)C(C)C)C(C)C` [α41-55, Leu--Arg--Ser--Lys--Lys--Thr--Met--Leu--Val--Gln Lys--Asn--Val--Thr--Ser] (H-LRSKKTMLVQKNVTS-NH2), the IC50 under setting [1] came to 171 ± 28.3 µM.

For `CSCC[C@H](N)C(=O)NCC(=O)NCC(=O)N[C@@H](Cc1ccccc1)C(=O)N[C@@H](CCCCN)C(=O)N[C@H](C(=O)N[C@@H](CCC(=O)O)C(=O)N[C@@H](CC(N)=O)C(=O)N[C@@H](Cc1c[nH]cn1)C(=O)N[C@H](C(=O)N[C@@H](C)C(=O)N[C@@H](CS)C(=O)N[C@@H](Cc1c[nH]cn1)C(=O)N[C@@H](CS)C(=O)N[C@@H](CO)C(N)=O)[C@@H](C)O)C(C)C` [α71-85, Met--Gly--Gly--Phe--Lys--Val--Glu--Asn--His--Thr--Ala--Cys--His--Cys--Ser] (H-MGGFKVENHTACHCS-NH2), under setting [1], the IC50 is over 700 µM.

On to `CC[C@H](C)[C@H](NC(=O)[C@@H]1CCCN1C(=O)[C@H](C)NC(=O)CNC(=O)[C@@H]1CCCN1C(=O)[C@H](CCC(N)=O)NC(=O)[C@H](CO)NC(=O)[C@H](Cc1ccccc1)NC(=O)[C@H](Cc1ccccc1)NC(=O)[C@@H]1CCCN1C(=O)[C@H](CC(N)=O)NC(=O)[C@H](CCC(=O)O)NC(=O)[C@H](CCC(N)=O)NC(=O)[C@H](CC(C)C)NC(=O)[C@@H](N)[C@@H](C)O)C(N)=O` [α11-25, Thr--Leu--Gln--Glu--Asn--Pro--Phe--Phe--Ser--Gln--Pro--Gly--Ala--Pro--Ile] (H-TLQENPFFSQPGAPI-NH2), for which, under setting [1], the “bTSH ED50 (effective dose necessary to inhibit binding of 125I-bTSH by 50%)” value is on record as “no activity”.

`CSCC[C@H](NC(=O)[C@@H](NC(=O)[C@@H](NC(=O)[C@@H](NC(=O)[C@H](CCCNC(=N)N)NC(=O)[C@H](CC(N)=O)NC(=O)[C@H](Cc1ccc(O)cc1)NC(=O)[C@H](CO)NC(=O)[C@H](CCCCN)NC(=O)[C@H](C)NC(=O)[C@@H](N)C(C)C)C(C)C)[C@@H](C)O)C(C)C)C(=O)NCC(=O)NCC(=O)N[C@@H](Cc1ccccc1)C(=O)N[C@@H](CCCCN)C(N)=O` [α61-75, Val--Ala--Lys--Ser--Tyr--Asn--Arg--Val--Thr--Val--Met--Gly--Gly--Phe--Lys] (H-VAKSYNRVTVMGGFK-NH2): under setting [1], the IC50 was over 700 µM.

The record behind these values is patent US4973578A, “Synthetic peptides derived from the alpha-subunit of human lycoprotein hormones” (Mayo Foundation for Medical Education and Research, priority 1988, dated 1990).
